Source: patent US20030180341A1, “Biocompatible hydrophilic films from polymeric mini-emulsions for application to skin” (priority 2002, published 2003)

Key:
[1] = Anti-microbial effect of mini-emulsion/film compositions with sodium hypochlorite; conditions: provided in the mini-emulsion/film compositions, preferably between about 0.1 and about 0.5% by weight of solids
[2] = Antibacterial properties of films and mini-emulsions containing caprylic fatty acid
[3] = Antifungal properties of films containing caprylic fatty acid; conditions: dried film

| Structure (SMILES) | anti-microbial effect [1] | antibacterial effect ([2]; dried film) | antibacterial properties ([2]; liquid mini-emulsion) | antifungal properties [3] |
| --- | --- | --- | --- | --- |
| OCl [sodium hypochlorite] | effective as a broad spectrum anti-microbial |  |  |  |
| CCCCCCCC(=O)O [caprylic fatty acid] |  | mild antibacterial effect | broad spectrum antibacterial properties | broad spectrum antifungal properties |
